Data published in patent US20260374794A1, “COMPOUNDS TARGETING MUTANT OF P53” (JACOBIO PHARMACEUTICALS CO., LTD., priority 2022, published 2026).

Legend:
p53(Y220C)_NUGC-3 = p53(Y220C)_NUGC-3 (Homo sapiens, UniProt P04637, Y220C); experiment: Reporter gene assay (NUGC-3_P53_Luc cells); assay type: cell-based; details: 6 hours, 37 °C, luciferase, normalized to Ref-1a 10 μM, EC50 = concentration at 50% Activity, read-out: p53(Y220C)_NUGC-3 EC50
Protocol: NUGC-3_P53_Luc single clonal cell line was established using pGL4.38[luc2P/p53 RE/Hygro] Vector (E365A, promega). NUGC-3_P53_Luc single clonal cells were cultured in 37 °C cell incubator before use. NUGC-3_P53_Luc cells were collected and washed twice with PBS to remove phenol red and then resuspended in medium to a proper concentration. Tested compound dilutions were transferred into 384 well assay plates (PerkinElmer). A desired number of cells was seeded into the assay plate and cultured for 6 hours at 37 °C cell incubator. Britelite plus Luciferase Assay Reagent were added into each well and the luminescence value was recorded on Envision. The percent of activity value of compounds treated wells was normalized between high control and low control. Wells containing cells and Ref-la (10 μM) served as high control, and wells containing cells and same percentage of DMSO served as low control. Activity value (%)=(Luminescence readoutCompound treated−Luminescence readoutLow control)/(Luminescence readoutHigh control−Luminescence readoutLow control)*100%. Then the data were analyzed either by fitting a 4-parameter logistic model or by Excel to calculate EC50 values and the EC50 was the concentration at 50% Activity on the curve.

NUGC-3 (P53 Y220C) = experiment: Cell viability assay (CellTiter-Glo); assay type: cell-based; details: NUGC-3 cells, 6 days, 37 °C
Protocol: Cells were collected and counted. A desired number of cells was seeded into 96-well microplate and cultured in 37 °C cell incubator overnight. Compounds dissolved in cell culture medium were added into cell plate and cultured for 6 days. After balancing CellTiter-Glo reagent and cells at room temperature for 30 min, equal volume of CellTiter-Glo reagents was added to assay plate and shaken for 2 min for cell lysis. The cells were balanced at room temperature for 10 minutes and Luminescence signal was read using Envision. The percent of cell viability for compounds treated wells were normalized between High control and low control. Wells containing cell culture medium and same percentage DMSO served as Low control. Wells containing cells and same percentage DMSO served as High control. Cell viability (%)=(Luminescence readoutCompound treated−Luminescence readoutLow control)/(Luminescence readoutHigh control−Luminescence readoutLow control)*100%. Then the data were analyzed either by fitting a 4-parameter logistic model or by Excel to calculate IC50 values. And the IC50 was the concentration at […] Cell viability on the curve.

p53(Y220C) = biological target: T1, p53(Y220C) (Homo sapiens, UniProt P04637, Y220C); experiment: In vitro DNA binding assay (HTRF), His-p53 Y220C (94-294) with biotinylated p53 consensus DNA; assay type: biochemical; details: HTRF; 27 °C; His-p53 Y220C (94-294) 2.5 nM; biotinylated DNA 10 nM; normalized to 2 μM Ref-1a; EC50 = concentration at 50% Activation; read-out: p53(Y220C) EC50
T1 construct: His-p53 Y220C (94-294) protein
Protocol: After His-p53 Y220C (94-294) protein was placed with a compound in the present of MAb Anti His-Tb cryptate (Cisbio, Cat. NO. 61HI2TLA) in a 384 well microplate (Greiner) for 15 min at 25 °C, the assay plate was transferred into 27 °C incubator and incubated for 60 min. Biotinalyted p53 consensus DNA (ID: p53-SEQUENCE 2 —F: 5′(biotin)-[…] 3′ —R: 5′ […] 3′) was added into the assay plate in the present of Streptaidin-d2 (Cisbio, Cat. NO. 610SADLF) cryptate (Final concentration: 20 mM HEPES pH=7.4, 75 mM KCl, 1 mM MgCl2, 0.1% (w/v) BSA, 1 mM DTT, 2.5 nM His-P53 Y220C (94-294) protein, 0.33 nM MAb Anti His-Tb cryptate, 2.5 nM Streptaidin-d2 cryptate, 10 nM Biotinalyted DNA) and incubated for another 60 min. Wells containing 2 μM reference compound Ref-1a served as high control, and wells containing same percentage of DMSO served as low control. Homogeneous time-resolved fluorescence (HTRF) signals were read on Tecan Spark multimode microplate reader. HTRF ratios for each individual well were calculated by equation: HTRF ratio=(Signal F665/Signal F620)*1000. The percent of activation of compounds treated wells were normalized between high control and low control (% Activation=(HTRF ratiocompound treated−HTRF ratiolow control)/(HTRF ratiohigh control−HTRF ratiolow control)*100%). Then the data were analyzed either by fitting a 4-parameter logistic model or by Excel to calculate EC50 values. And the EC50 was the concentration at 50% Activation on the curve.

| Compound | EC50 (p53(Y220C)_NUGC-3) [nM] | IC50 (NUGC-3 (P53 Y220C); Homo sapiens, 144 h) [nM] | EC50 (p53(Y220C)) [nM] | IC50 (NUGC-3 (P53 Y220C)) [nM] |
| --- | --- | --- | --- | --- |
| COc1nc([S@](C)(=N)=O)ccc1NCC#Cc1sc2c(N[C@@H]3CCN(C)C[C@@H]3F)cccc2c1CC(F)(F)F [Example 44, (R)-(5-((3-(7-(((3S,4R)-3-fluoro-1-methylpiperidin-4-yl)amino)-3-(2,2,2-trifluoroethyl)benzo[b]thiophen-2-yl)prop-2-yn-1-yl)amino)-6-methoxypyridin-2-yl)(imino)(methyl)-16-sulfanone] | 84 | 1350 | 46 | – |
| COc1cc(P(C)(C)=O)ccc1NCC#Cc1sc2c(N[C@@H]3CCN(C)C[C@@H]3F)cccc2c1[C@H](O)C(F)(F)F [Example 31, (4-((3-(7-(((3S,4R)-3-fluoro-1-methylpiperidin-4-yl)amino)-3-((S)-2,2,2-trifluoro-1-hydroxyethyl)benzo[b]thiophen-2-yl)prop-2-yn-1-yl)amino)-3-methoxyphenyl)dimethylphosphine oxide] | 126 | 870 | 29 | – |
| COc1nc([S@@](C)(=N)=O)ccc1NCC#Cc1sc2c(N[C@@H]3CCN(C)C[C@@H]3F)cccc2c1CC(F)(F)F [Example 45, (S)-(5-((3-(7-(((3S,4R)-3-fluoro-1-methylpiperidin-4-yl)amino)-3-(2,2,2-trifluoroethyl)benzo[b]thiophen-2-yl)prop-2-yn-1-yl)amino)-6-methoxypyridin-2-yl)(imino)(methyl)-16-sulfanone] | 95 | 1330 | 65 | – |
| COc1cc([S@@](C)(=N)=O)ccc1NCC#Cc1sc2c(N[C@@H]3CCN(C)C[C@H]3F)cccc2c1[C@@H](O)C(F)(F)F [Example 59, (S)-(4-((3-(7-(((3R,4R)-3-fluoro-1-methylpiperidin-4-yl)amino)-3-((R)-2,2,2-trifluoro-1-hydroxyethyl)benzo[b]thiophen-2-yl)prop-2-yn-1-yl)amino)-3-methoxyphenyl)(imino)(methyl)-16-sulfanone] | 266 | 2060 | 109 | – |
| COc1c(NCC#Cc2sc3c(N[C@@H]4CCN(C)C[C@@H]4F)cccc3c2CC(F)(F)F)ccc(P(C)(C)=O)c1OC [Example 57, (4-((3-(7-(((3S,4R)-3-fluoro-1-methylpiperidin-4-yl)amino)-3-(2,2,2-trifluoroethyl)benzo[b]thiophen-2-yl)prop-2-yn-1-yl)amino)-2,3-dimethoxyphenyl)dimethylphosphine oxide] | 164 | 790 | 37 | – |
| COc1c(NCC#Cc2sc3c(N[C@@H]4CCN(C)C[C@@H]4F)cccc3c2CC(F)(F)F)ccc(P(C)(C)=O)c1C [Example 41, (4-((3-(7-(((3S,4R)-3-fluoro-1-methylpiperidin-4-yl)amino)-3-(2,2,2-trifluoroethyl)benzo[b]thiophen-2-yl)prop-2-yn-1-yl)amino)-3-methoxy-2-methylphenyl)dimethylphosphine oxide] | 137 | 1230 | 56 | – |
| COc1cc([S@](=N)(=O)C(C)C)ccc1NCC#Cc1sc2c(N[C@@H]3CCN(C)C[C@@H]3F)cccc2c1CC(F)(F)F [Example 26, (R)-(4-((3-(7-(((3S,4R)-3-fluoro-1-methylpiperidin-4-yl)amino)-3-(2,2,2-trifluoroethyl)benzo[b]thiophen-2-yl)prop-2-yn-1-yl)amino)-3-methoxyphenyl)(imino)(isopropyl)-16-sulfanone] | 208 | 1840 | 70 | – |
| COc1cc(P(C)(C)=O)ccc1NCC#Cc1sc2c(N[C@@H]3CCN(C)C[C@@H]3F)cccc2c1[C@@H](O)C(F)(F)F [Example 33, (4-((3-(7-(((3S,4R)-3-fluoro-1-methylpiperidin-4-yl)amino)-3-((R)-2,2,2-trifluoro-1-hydroxyethyl)benzo[b]thiophen-2-yl)prop-2-yn-1-yl)amino)-3-methoxyphenyl)dimethylphosphine oxide] | 102 | 1440 | 55 | – |
| COc1cc([S@](=N)(=O)C2CC2)ccc1NCC#Cc1sc2c(N[C@@H]3CCN(C)C[C@@H]3F)cccc2c1CC(F)(F)F [Example 53, (R)-cyclopropyl(4-((3-(7-(((3S,4R)-3-fluoro-1-methylpiperidin-4-yl)amino)-3-(2,2,2-trifluoroethyl)benzo[b]thiophen-2-yl)prop-2-yn-1-yl)amino)-3-methoxyphenyl)(imino)-16-sulfanone] | 128 | – | 39 | 680 |
| COc1cc([S@](=N)(=O)C2COC2)ccc1NCC#Cc1sc2c(N[C@@H]3CCN(C)C[C@@H]3F)cccc2c1CC(F)(F)F [Example 49, (R)-(4-((3-(7-(((3S,4R)-3-fluoro-1-methylpiperidin-4-yl)amino)-3-(2,2,2-trifluoroethyl)benzo[b]thiophen-2-yl)prop-2-yn-1-yl)amino)-3-methoxyphenyl)(imino)(oxetan-3-yl)-16-sulfanone] | 64 | – | 51 | 750 |
| CCOc1c(P(C)(C)=O)ccc(NCC#Cc2sc3c(N[C@@H]4CCN(C)C[C@@H]4F)cccc3c2CC(F)(F)F)c1OC [Example 43, (2-ethoxy-4-((3-(7-(((3S,4R)-3-fluoro-1-methylpiperidin-4-yl)amino)-3-(2,2,2-trifluoroethyl)benzo[b]thiophen-2-yl)prop-2-yn-1-yl)amino)-3-methoxyphenyl)dimethylphosphine oxide] | 160 | 590 | 56 | – |
| COc1cc(P(C)(C)=O)ccc1NCC#Cc1sc2c(N[C@H]3CCN(C)C[C@H]3F)cccc2c1[C@@H](O)C(F)(F)F [Example 34, (4-((3-(7-(((3R,4S)-3-fluoro-1-methylpiperidin-4-yl)amino)-3-((R)-2,2,2-trifluoro-1-hydroxyethyl)benzo[b]thiophen-2-yl)prop-2-yn-1-yl)amino)-3-methoxyphenyl)dimethylphosphine oxide] | 28 | 380 | 20 | – |
| COc1cc(S(=N)(=O)C2CCOCC2)ccc1NCC#Cc1sc2c(NC3CCN(C)CC3F)cccc2c1CC(F)(F)F [Example 24, (S)-(4-((3-(7-(((3S,4R)-3-fluoro-1-methylpiperidin-4-yl)amino)-3-(2,2,2-trifluoroethyl)benzo[b]thiophen-2-yl)prop-2-yn-1-yl)amino)-3-methoxyphenyl)(imino)(tetrahydro-2H-pyran-4-yl)-16-sulfanone] | 119 | 900 | 68 | – |
| [2H]C([2H])([2H])Oc1nc(P(C)(C)=O)ccc1NCC#Cc1sc2c(N[C@@H]3CCN(C)C[C@@H]3F)cccc2c1CC(F)(F)F [Example 56, (5-((3-(7-(((3S,4R)-3-fluoro-1-methylpiperidin-4-yl)amino)-3-(2,2,2-trifluoroethyl)benzo[b]thiophen-2-yl)prop-2-yn-1-yl)amino)-6-(methoxy-d3)pyridin-2-yl)dimethylphosphine oxide] | 61 | 430 | 45 | – |
